For 52 compounds, ThS net change results are on record in article PMC7539012, “Hyperphosphorylated tau aggregation and cytotoxicity modulators screen identified prescription drugs linked to Alzheimer's disease and cognitive functions” (Scientific Reports, 2020).

Each structure is given as a SMILES string. Counter-ions that a name gives are not always drawn.

One assay relates to T1, 1N4R p-tau.
T1 construct: made in house; host or cells: E. coli (PIMAX system)
In words: p-tau aggregation modulator screen of 1280-compound library (ThS fluorescence net change over 16 h).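 Note: 30 µM compound with 6 µM p-tau over 16 h.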 It is filed as biochemical.
Conditions: not given
As for `C[C@]12CC[C@H](O)C[C@@H]1CC[C@@H]1[C@@H]2CC[C@]2(C)C(=O)CC[C@@H]12` [Epiandrosterone], the ThS net change was 440.
Still for that read-out and setting: as for `COc1cccc2c1C(=O)c1c(O)c3c(c(O)c1C2=O)C[C@@](O)(C(=O)CO)C[C@@H]3O[C@H]1C[C@H](N)[C@@H](O)[C@H](C)O1` [Epirubicin hydrochloride], the figure is 315; as for `C[C@]12C[C@H]3S[C@H]3C[C@@H]1CC[C@@H]1[C@@H]2CC[C@]2(C)[C@@H](O)CC[C@@H]12` [Epitiostanol], 421; as for `C#C[C@]1(O)CC[C@H]2[C@@H]3CCC4=CC(=O)CC[C@]4(C)[C@H]3CC[C@@]21C` [Ethisterone], 490.
The same measure, in the same setting: as for `CCOC(=O)c1cncn1[C@H](C)c1ccccc1` [Etomidate], the figure is 447; as for `CC(C)c1c(CN(C)C(C)Cc2ccccc2)n(C)n(-c2ccccc2)c1=O` (stereo not shown) [Famprofazone], 477.

The same assay, now with this note: 1280-compound library screen; ThS fluorescence net change over 16 h.
In the case of `COc1cc(C)nc(-n2nc(C)cc2OC)n1` [Epirizole], the ThS net change came to 389.
The same measure, in the same setting: the same measure for `C#Cc1cccc(Nc2ncnc3cc(OCCOC)c(OCCOC)cc23)c1` [Erlotinib]: 387.
On the same count and under the same terms, as for `COC(=O)CCc1ccc(OCC(O)CNC(C)C)cc1` (stereo not shown) [Esmolol hydrochloride], the figure is 400; as for `C[C@]12CC[C@@H]3c4ccc(O)cc4CC[C@H]3[C@@H]1CC[C@@H]2O` [Estradiol-17 beta], 384; as for `C=C(CC)C(=O)c1ccc(OCC(=O)O)c(Cl)c1Cl` [Ethacrynic acid], 412.
`CCN(CC)C(=O)c1ccc(O)c(OC)c1` [Ethamivan] registered a ThS net change of 386.
With `CCN1C(=O)NC(c2ccccc2)C1=O` (stereo not shown) [Ethotoin], the ThS net change was determined as 394.
Same read-out and setting: the same measure for `C#C[C@]1(O)CC[C@H]2[C@@H]3CCc4cc(OC)ccc4[C@H]3CC[C@@]21C` [Ethynylestradiol 3-methyl ether]: 406; for `CCNCC(O)c1cccc(O)c1` (stereo not shown) [Etilefrine hydrochloride]: 407; for `CC1CC(OC(=O)C(O)c2ccccc2)CC(C)(C)N1C` (stereo not shown) [Eucatropine hydrochloride]: 387.
Consider `NC(N)=Nc1nc(CSCCC(N)=NS(N)(=O)=O)cs1` [Famotidine], for which the ThS net change turned out to be 390.
Still for that read-out and setting: as for `O=C(O)Cc1ccc(-c2ccccc2)cc1` [Felbinac], the figure is 405; as for `CCOC(=O)C1=C(C)NC(C)=C(C(=O)OC)C1c1cccc(Cl)c1Cl` (stereo not shown) [Felodipine], 405.

Staying with this assay, now noted: 1280-compound library screen; […].
`C[C@]12CC[C@H]3C(=CCc4cc(O)ccc43)[C@@H]1CCC2=O` [Equilin] yielded a ThS net change of 389.
Same read-out and setting: as for `CNC(=O)Oc1ccc2c(c1)[C@]1(C)CCN(C)[C@@H]1N2C` [Eserine hemisulfate salt], the figure is 395.
Same read-out and setting: the same measure for `C[C@]12CC[C@@H]3c4ccc(OC(=O)N(CCCl)CCCl)cc4CC[C@H]3[C@@H]1CC[C@@H]2O` [Estramustine]: 407; for `CC(O)(P(=O)([O-])O)P(=O)([O-])O.[Na+].[Na+]` [Etidronic acid, disodium salt]: 392.

The assay is the same for the next values; noted with them: library screen, ThS fluorescence net change over 16 h with p-tau.
`CCN(CC)C(=O)/C(C#N)=C/c1cc(O)c(O)c([N+](=O)[O-])c1` [Entacapone] had a ThS net change of 199.
On to `CC[C@H]1OC(=O)[C@H](C)[C@@H](O[C@H]2C[C@@](C)(OC)[C@@H](O)[C@H](C)O2)[C@H](C)[C@@H](O[C@@H]2O[C@H](C)C[C@H](N(C)C)[C@H]2O)[C@](C)(O)C[C@@H](C)C(=O)[C@H](C)[C@@H](O)[C@]1(C)O` [Erythromycin], for which the ThS net change worked out at 314.

Staying with this assay, now noted: p-tau aggregation modulator screen of 1280-compound library; ThS fluorescence net change.
Turning to `CN(C)CCC[C@@]1(c2ccc(F)cc2)OCc2cc(C#N)ccc21` [Escitalopram oxalate], the ThS net change was found to be 374.
The same measure, in the same setting: the same measure for `C[C@]12CC[C@@H]3c4ccc(O)cc4CC[C@H]3[C@@H]1CCC2=O` [Estrone]: 344; for `C[C@]12CC[C@@H]3c4ccc(OS(=O)(=O)O)cc4CC[C@H]3[C@@H]1CCC2=O` [Estropipate]: 359.
Same read-out and setting: as for `CC[C@@H](CO)NCCN[C@@H](CC)CO` [Ethambutol dihydrochloride], the figure is 344; as for `CCc1cc(C(N)=S)ccn1` [Ethionamide], 360.
The same measure, in the same setting: the same measure for `CCN(CC)C(C)CN1c2ccccc2Sc2ccccc21` (stereo not shown) [Ethopropazine hydrochloride]: 336.
The compound `C#C[C@]1(OC(C)=O)CC[C@H]2[C@@H]3CCC4=C[C@@H](OC(C)=O)CC[C@@H]4[C@H]3CC[C@@]21C` [Ethynodiol diacetate] displayed a ThS net change of 355.
Still for that read-out and setting: as for `Cc1ccc(-c2ncc(Cl)cc2-c2ccc(S(C)(=O)=O)cc2)cn1` [Etoricoxib], the figure is 376.
Same read-out and setting: as for `C=C1C[C@@H]2[C@H](CC[C@]3(C)C(=O)CC[C@@H]23)[C@@]2(C)C=CC(=O)C=C12` [Exemestane], the figure is 373.

Staying with this assay, now noted: p-tau aggregation modulator screen of the compound library, ThS fluorescence net change.
Compound `CCCCC(=O)O[C@H]1CC[C@H]2[C@@H]3CCc4cc(O)ccc4[C@H]3CC[C@]12C` [Estradiol Valerate] came in with a ThS net change of 417.
The same measure, in the same setting: as for `C[C@]12CC[C@@H]3c4ccc(O)cc4CC[C@H]3[C@@H]1C[C@@H](O)[C@@H]2O` [Estriol], the figure is 440; as for `O=C(Cn1ccnc1[N+](=O)[O-])NCCO` [Etanidazole], 461; as for `O=S(=O)(O)c1cc(O)ccc1O` [Ethamsylate], 455.
The same measure, in the same setting: the same measure for `CCOc1ccc(Cc2nccc3cc(OCC)c(OCC)cc23)cc1OCC` [Ethaverine hydrochloride]: 439.
The compound `C#C[C@]1(O)CC[C@H]2[C@@H]3CCc4cc(O)ccc4[C@H]3CC[C@@]21C` [Ethinylestradiol] gave a ThS net change of 451.
Same read-out and setting: as for `CCC1(C)CC(=O)NC1=O` (stereo not shown) [Ethosuximide], the figure is 433; as for `CCOc1ccc2c(c1)C(C)=CC(C)(C)N2` [Ethoxyquin], 460.
Same read-out and setting: the same measure for `CCOc1ccc2nc(S(N)(=O)=O)sc2c1` [Ethoxzolamide]: 428; for `CCc1cccc(CC)c1NC(=O)CN(CC(=O)O)CC(=O)O` [Etifenin]: 414.
The same measure, in the same setting: the same measure for `CCc1cccc2c3c([nH]c12)C(CC)(CC(=O)O)OCC3` (stereo not shown) [Etodolac]: 443; for `O=C(OCCOCCO)c1ccccc1Nc1cccc(C(F)(F)F)c1` [Etofenamate]: 425; for `Cn1c(=O)c2c(ncn2CCO)n(C)c1=O` [Etofylline]: 422.
For `COc1cc([C@@H]2c3cc4c(cc3[C@@H](O[C@@H]3O[C@@H]5CO[C@@H](C)O[C@H]5[C@H](O)[C@H]3O)[C@H]3COC(=O)[C@H]23)OCO4)cc(OC)c1O` [Etoposide], the ThS net change is listed as 413.
The same measure, in the same setting: as for `CCOC(=O)/C=C(C)/C=C/C=C(C)/C=C/c1c(C)cc(OC)c(C)c1C` [Etretinate], the figure is 420; as for `O=C1[C@H](CC[C@H](O)c2ccc(F)cc2)[C@@H](c2ccc(O)cc2)N1c1ccc(F)cc1` [Ezetimibe], 466; as for `CC(=O)OCC(CCn1cnc2cnc(N)nc21)COC(C)=O` [Famciclovir], 459.
Still for that read-out and setting: the same measure for `NC(=O)OCC(COC(N)=O)c1ccccc1` [Felbamate]: 439.
